# Experimental data: patent publication US11744873B2, “Compositions and methods for the treatment of metabolic and liver disorders” (Viking Therapeutics, Inc., priority 2021, dated 2023)
# Assays:
# [1] = system: mice fed Gubra amylin NASH (GAN) diet; experiment: Biological effects in GAN diet NASH mice; type: in vivo; settings: after two weeks, 10 mg/kg group; for Gal-3 Total: liver Galectin-3, histological quantitative assessment; for TG Total: liver triglycerides, GAN diet NASH mice; for α-SMA Total: liver α-smooth muscle actin, histological quantitative assessment
# Description: NASH was induced in mice by feeding mice a Gubra amylin NASH (GAN) diet as described in Boland et al. World J Gastroenterol. 2019, 25(33): 4904-4920. One week prior to administration of a first dose of compounds, the mice were weighed and randomized, and their food intake was measured. Mice were randomly assigned to dosing groups, with twelve mice per group. […] Compound dose titration (nmol/kg): 0.6 (day 0), 1.2 (day 1), 2.4 (day 2), 4.8 (day 3), 4.8 (day 4), 12 (day 5), 30.0 (from day 6).
# After two weeks, animals were sacrificed. Plasma enzymes (P-ALT (alanine aminotransferase) and P-AST (aspartate aminotransferase)), total plasma triglycerides, and total plasma cholesterol were measured, and terminal necropsy of each liver was carried out, determining relative liver weight as a percentage of body weight, assaying total liver biochemistry including total liver triglycerides, plasma insulin and total liver cholesterol, as well as histological evaluation of Galectin-3, and alpha-smooth muscle actin.
# [2] = Pharmacokinetics in monkeys, SC dosing; type: in vivo, cynomolgus monkeys; settings: for half-life: cynomolgus monkey, in vivo, male cynomolgus monkeys, SC single dose 0.2 mg/kg, 0.1% bovine serum albumin in phosphate buffered saline, mean; for persistence in the blood stream as compared to tirzepatide: cynomolgus monkeys, SC 0.2 mg/kg
# Description: (§1) Subcutaneous (SC) dosing of the compounds in a vehicle of 0.1% bovine serum albumin in phosphate buffered saline solution was performed with male cynomolgus monkeys. […] Samples were obtained at 1, 4, 8, 12, 24, 48, 72, 96, 120, 168, 192, 240 and 336 hours after the single dose was administered.
# [3] = Pharmacokinetics studies of formulations, SC dosing; type: in vivo, cynomolgus monkeys; settings: for half-life: cynomolgus monkey, in vivo, SC 0.2 mg/kg, mean
# Description: as §1
# Formulation 1 included the compound in a vehicle of 0.1% bovine serum albumin in phosphate buffered saline solution.
# GLP-1 receptor [4] = molecular target: T1, GLP-1 receptor (Homo sapiens, UniProt P43220); experiment: TagLite binding assay, GLP-1 receptor; settings: for % Binding avg at CMax: GLP-1 receptor
# GIP receptor [5] = molecular target: T2, GIP receptor (Homo sapiens, UniProt P48546); experiment: TagLite binding assay, GIP receptor; settings: for % Binding avg at CMax: GIP receptor
# T2 sequence (P48546 22-466): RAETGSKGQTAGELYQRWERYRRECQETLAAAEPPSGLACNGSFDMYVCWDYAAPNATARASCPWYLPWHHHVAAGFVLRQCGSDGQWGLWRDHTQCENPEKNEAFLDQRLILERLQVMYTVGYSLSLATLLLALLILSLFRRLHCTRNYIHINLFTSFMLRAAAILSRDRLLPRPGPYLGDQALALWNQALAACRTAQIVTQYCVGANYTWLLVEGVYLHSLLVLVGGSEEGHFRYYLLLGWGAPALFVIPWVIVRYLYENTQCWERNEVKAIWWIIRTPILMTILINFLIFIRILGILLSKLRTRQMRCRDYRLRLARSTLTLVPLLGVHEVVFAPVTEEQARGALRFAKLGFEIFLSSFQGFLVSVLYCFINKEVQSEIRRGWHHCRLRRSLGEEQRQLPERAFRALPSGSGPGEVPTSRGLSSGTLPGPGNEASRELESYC
# GLP-1 receptor [6] = molecular target: T1, GLP-1 receptor; experiment: HSA modulated binding assay, GLP-1 receptor; settings: for IC50: IC 50, GLP-1 receptor
# GIP receptor [7] = molecular target: T2, GIP receptor; experiment: HSA modulated binding assay, GIP receptor; settings: for % Binding avg at CMax: GIP receptor; for IC50: IC 50, GIP receptor
# T1 sequence (P43220 24-463): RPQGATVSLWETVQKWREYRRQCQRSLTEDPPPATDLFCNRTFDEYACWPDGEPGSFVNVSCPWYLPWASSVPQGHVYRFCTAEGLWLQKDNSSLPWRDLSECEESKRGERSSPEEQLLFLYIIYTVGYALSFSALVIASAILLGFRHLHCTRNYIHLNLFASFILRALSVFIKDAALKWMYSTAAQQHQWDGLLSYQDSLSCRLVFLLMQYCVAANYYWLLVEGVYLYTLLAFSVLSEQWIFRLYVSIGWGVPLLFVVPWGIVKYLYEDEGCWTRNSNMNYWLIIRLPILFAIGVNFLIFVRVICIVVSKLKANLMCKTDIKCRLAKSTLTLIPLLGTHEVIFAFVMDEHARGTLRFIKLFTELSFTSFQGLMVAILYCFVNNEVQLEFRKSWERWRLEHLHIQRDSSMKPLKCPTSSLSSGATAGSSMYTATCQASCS
compound,measurement,setting,value
CC[C@H](C)[C@H](NC(=O)[C@H](CC(C)C)NC(=O)[C@H](Cc1c[nH]c2ccccc12)NC(=O)[C@H](CCC(N)=O)NC(=O)[C@@H](NC(=O)[C@H](Cc1ccccc1)NC(=O)[C@H](C)NC(=O)[C@H](CCCCNC(=O)COCCOCCNC(=O)COCCOCCNC(=O)CC[C@H](NC(=O)CCCCCCCCCCCCCCCCCCP(=O)(O)O)C(=O)O)NC(=O)[C@H](CCC(N)=O)NC(=O)[C@H](C)NC(=O)[C@@H](NC(=O)[C@H](CCCCN)NC(=O)[C@H](CC(=O)O)NC(=O)[C@H](CC(C)C)NC(=O)C(C)(C)NC(=O)[C@@H](NC(=O)[C@H](CO)NC(=O)[C@H](Cc1ccc(O)cc1)NC(=O)[C@H](CC(=O)O)NC(=O)[C@H](CO)NC(=O)[C@@H](NC(=O)[C@H](Cc1ccccc1)NC(=O)[C@@H](NC(=O)CNC(=O)[C@H](CCC(=O)O)NC(=O)C(C)(C)NC(=O)[C@@H](N)Cc1ccc(O)cc1)[C@@H](C)O)[C@@H](C)O)[C@@H](C)CC)[C@@H](C)CC)C(C)C)C(=O)N[C@@H](C)C(=O)NCC(=O)NCC(=O)N1CCC[C@H]1C(=O)N[C@@H](CO)C(=O)N[C@@H](CO)C(=O)NCC(=O)N[C@@H](C)C(=O)N1CCC[C@H]1C(=O)N1CCC[C@H]1C(=O)N1CCC[C@H]1C(=O)N[C@@H](CO)C(N)=O [Compound 4],Gal-3 Total,[1],137 ± 15 mg
same,TG Total,[1],70 ± 5 mg per/ liver
same,α-SMA Total,[1],102 ± 10 mg
same,half-life,[2],118 h
same,persistence in the blood stream as compared to tirzepatide,[2],significantly greater persistence
same,persistence in the blood stream as compared to tirzepatide in the identical formulation,[3]; Formulation 1 and Formulation 2,significantly greater persistence
same,half-life,[3]; Formulation 1 (0.1% bovine serum albumin in phosphate buffered saline),106 h
same,half-life,[3]; Formulation 2 (40% propylene glycol and 60% 10 mM pH 6 citrate buffer),120 h
CC[C@H](C)[C@H](NC(=O)[C@H](CC(C)C)NC(=O)[C@H](Cc1c[nH]c2ccccc12)NC(=O)[C@H](CCC(N)=O)NC(=O)[C@@H](NC(=O)[C@H](Cc1ccccc1)NC(=O)[C@H](C)NC(=O)[C@H](CCCCNC(=O)COCCOCCNC(=O)COCCOCCNC(=O)CC[C@H](NC(=O)CCCCCCCCCCCCCCCCCCP(=O)(O)O)P(=O)(O)O)NC(=O)[C@H](CCC(N)=O)NC(=O)[C@H](C)NC(=O)[C@@H](NC(=O)[C@H](CCCCN)NC(=O)[C@H](CC(=O)O)NC(=O)[C@H](CC(C)C)NC(=O)C(C)(C)NC(=O)[C@@H](NC(=O)[C@H](CO)NC(=O)[C@H](Cc1ccc(O)cc1)NC(=O)[C@H](CC(=O)O)NC(=O)[C@H](CO)NC(=O)[C@@H](NC(=O)[C@H](Cc1ccccc1)NC(=O)[C@@H](NC(=O)CNC(=O)[C@H](CCC(=O)O)NC(=O)C(C)(C)NC(=O)[C@@H](N)Cc1ccc(O)cc1)[C@@H](C)O)[C@@H](C)O)[C@@H](C)CC)[C@@H](C)CC)C(C)C)C(=O)N[C@@H](C)C(=O)NCC(=O)NCC(=O)N1CCC[C@H]1C(=O)N[C@@H](CO)C(=O)N[C@@H](CO)C(=O)NCC(=O)N[C@@H](C)C(=O)N1CCC[C@H]1C(=O)N1CCC[C@H]1C(=O)N1CCC[C@H]1C(=O)N[C@@H](CO)C(N)=O [Compound 12],IC50,GLP-1 receptor [4],129 nM
same,% Binding avg at CMax,GLP-1 receptor [4],0.09%
same,IC50,GIP receptor [5],137 nM
same,% Binding avg at CMax,GIP receptor [5],−1.47%
same,% Binding avg at CMax,"GLP-1 receptor [6]; GLP-1 receptor, 0% HSA",0.22%
same,% Binding avg at CMax,"GLP-1 receptor [6]; GLP-1 receptor, 2% HSA",12.04%
same,IC50,GLP-1 receptor [6]; 0% HSA,145 nM
same,IC50,GLP-1 receptor [6]; 2% HSA,763 nM
same,% Binding avg at CMax,GIP receptor [7]; 0% HSA,−3.33%
same,% Binding avg at CMax,GIP receptor [7]; 2% HSA,5.52%
same,IC50,GIP receptor [7]; 0% HSA,256 nM
same,IC50,GIP receptor [7]; 2% HSA,436 nM
same,half-life,[2],104 h
same,persistence in the blood stream as compared to tirzepatide,[2],significantly greater persistence
tirzepatide [reference compound],% Binding avg at CMax,GLP-1 receptor [4],0.20%
same,% Binding avg at CMax,GIP receptor [5],−1.21%
same,% Binding avg at CMax,"GLP-1 receptor [6]; GLP-1 receptor, 0% HSA",−0.14%
same,% Binding avg at CMax,"GLP-1 receptor [6]; GLP-1 receptor, 2% HSA",33.01%
same,Ratio of HSA/No HSA,"GLP-1 receptor [6]; GLP-1 receptor, binding with 2% HSA to binding with 0% HSA",12.8
same,% Binding avg at CMax,GIP receptor [7]; 0% HSA,−3.05%
same,% Binding avg at CMax,GIP receptor [7]; 2% HSA,10.07%
same,Gal-3 Total,[1],138 ± 17 mg
same,TG Total,[1],80 ± 11 mg per/ liver
same,α-SMA Total,[1],108 ± 22 mg
CC[C@H](C)[C@H](NC(=O)[C@H](CC(C)C)NC(=O)[C@H](Cc1c[nH]c2ccccc12)NC(=O)[C@H](CCC(N)=O)NC(=O)[C@@H](NC(=O)[C@H](Cc1ccccc1)NC(=O)[C@H](C)NC(=O)[C@H](CCCCNC(=O)COCCOCCNC(=O)COCCOCCNC(=O)CC[C@H](NC(=O)CCCCCCCCCCCCCCCCCCC(=O)O)P(=O)(O)O)NC(=O)[C@H](CCC(N)=O)NC(=O)[C@H](C)NC(=O)[C@@H](NC(=O)[C@H](CCCCN)NC(=O)[C@H](CC(=O)O)NC(=O)[C@H](CC(C)C)NC(=O)C(C)(C)NC(=O)[C@@H](NC(=O)[C@H](CO)NC(=O)[C@H](Cc1ccc(O)cc1)NC(=O)[C@H](CC(=O)O)NC(=O)[C@H](CO)NC(=O)[C@@H](NC(=O)[C@H](Cc1ccccc1)NC(=O)[C@@H](NC(=O)CNC(=O)[C@H](CCC(=O)O)NC(=O)C(C)(C)NC(=O)[C@@H](N)Cc1ccc(O)cc1)[C@@H](C)O)[C@@H](C)O)[C@@H](C)CC)[C@@H](C)CC)C(C)C)C(=O)N[C@@H](C)C(=O)NCC(=O)NCC(=O)N1CCC[C@H]1C(=O)N[C@@H](CO)C(=O)N[C@@H](CO)C(=O)NCC(=O)N[C@@H](C)C(=O)N1CCC[C@H]1C(=O)N1CCC[C@H]1C(=O)N1CCC[C@H]1C(=O)N[C@@H](CO)C(N)=O [Compound 8],Gal-3 Total,[1],117 ± 12 mg
same,TG Total,[1],75 ± 7 mg per/ liver
same,α-SMA Total,[1],83 ± 8 mg
